pIC50: −log10 of the molar value.
Key:
[1] = Inhibitory activity against Cdk2/cyclin E; set-up: species or system Homo sapiens
Homo sapiens = organism: Homo sapiens; assay: Selectivity for Cdk5/p25 over Cdk2/cyclin E
[2] = target: Cyclin-dependent kinase 5/CDK5 activator 1 (Homo sapiens, UniProt Q00535); assay: Inhibitory activity against Cdk5/p25; assay type: protein-complex assay
[3] = Toxicity in Vero-C1008 cells at 6.25 to 50 ug/ml; assay type: cell-based; conditions: African green monkey

Sequence of Cyclin-dependent kinase 5/CDK5 activator 1 (Q00535 whole entry): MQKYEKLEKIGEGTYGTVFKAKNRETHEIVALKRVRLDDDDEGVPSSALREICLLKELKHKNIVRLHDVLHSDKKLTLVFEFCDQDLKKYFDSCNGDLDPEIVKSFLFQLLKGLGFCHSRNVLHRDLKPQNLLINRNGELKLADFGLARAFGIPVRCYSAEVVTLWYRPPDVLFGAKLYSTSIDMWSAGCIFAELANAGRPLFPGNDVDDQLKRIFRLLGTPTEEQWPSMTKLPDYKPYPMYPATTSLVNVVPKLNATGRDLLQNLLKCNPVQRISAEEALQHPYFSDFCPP
Sequence of Cyclin-dependent kinase 5/CDK5 activator 1 (Q15078 whole entry, further chain): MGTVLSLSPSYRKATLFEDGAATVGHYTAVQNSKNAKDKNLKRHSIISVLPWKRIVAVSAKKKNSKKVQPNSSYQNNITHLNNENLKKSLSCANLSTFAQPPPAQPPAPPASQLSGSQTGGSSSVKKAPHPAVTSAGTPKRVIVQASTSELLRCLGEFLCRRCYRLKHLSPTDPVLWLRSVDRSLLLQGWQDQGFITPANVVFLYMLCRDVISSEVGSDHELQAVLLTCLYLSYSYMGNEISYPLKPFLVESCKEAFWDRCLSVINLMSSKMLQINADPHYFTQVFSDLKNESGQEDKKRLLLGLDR

| pIC50 [1] | Ratio IC50 (Homo sapiens) | pIC50 [2] | SMILES | Activity [3] |
| --- | --- | --- | --- | --- |
| 7.11 | 1 | 7.19 | CC(=O)Nc1cc(C)c(-c2nnc3sc(-c4cccc([N+](=O)[O-])c4)nn23)s1 | Not Active |
| 7.05 | 2 | 7.36 | CC(=O)Nc1cc(C)c(-c2nnc3n2NC(c2ccccc2)=C(c2ccccc2)S3)s1 | Not Active |
| – | – | 5.61 | O=C(CCl)Nc1cc(-c2ccccc2)c(-c2nnc3n2N=C(c2cc(F)c(Cl)cc2Cl)/C(=C/c2ccc(Cl)cc2)S3)s1 | Not Active |
| – | – | 5.48 | CC(=O)Nc1cc(C)c(-c2nnc3n2N=C(c2cc(F)c(Cl)cc2Cl)/C(=C/c2ccccc2Cl)S3)s1 | Not Active |
| – | – | 5.47 | CC(=O)Nc1cc(C)c(-c2nnc3n2N=C(c2cc(F)c(Cl)cc2Cl)/C(=C/c2ccc(Cl)cc2)S3)s1 | Not Active |
| – | – | 5.51 | Cc1cc(NC(=O)CCl)sc1-c1nnc2n1N=C(c1cc(F)c(Cl)cc1Cl)/C(=C/c1cccc([N+](=O)[O-])c1)S2 | Not Active |
| 7.15 | 2 | 7.47 | CC(=O)Nc1cc(C)c(-c2nnc3n2Nc2nc4ccccc4nc2S3)s1 | Not Active |
| – | – | 5.84 | CC(=O)Nc1cc(-c2ccccc2)c(-c2nnc3n2N=C(c2cc(F)c(Cl)cc2Cl)/C(=C/c2ccccc2)S3)s1 | Not Active |
| – | – | 5.61 | CC(=O)Nc1cc(-c2ccccc2)c(-c2nnc3n2N=C(c2cc(F)c(Cl)cc2Cl)/C(=C/c2cccc([N+](=O)[O-])c2)S3)s1 | Not Active |
| – | – | 5.23 | O=C(CCl)Nc1cc(-c2ccccc2)c(-c2nnc3sc(S)nn23)s1 | Not Active |
| – | – | 6.19 | CC(=O)Nc1cc(C)c(-c2nnc3n2N=C(C)CS3)s1 | Not Active |
| 7.36 | 1.2 | 7.42 | CC(=O)Nc1cc(-c2ccccc2)c(-c2nnc3sc(-c4ccccc4)nn23)s1 | Not Active |
| 6.90 | 2 | 7.21 | O=C(CCl)Nc1cc(-c2ccccc2)c(-c2nnc3n2NC(c2ccccc2)=C(c2ccccc2)S3)s1 | Not Active |
| – | – | 5.63 | CC(=O)Nc1cc(C)c(-c2nnc3n2N=C(c2cc(F)c(Cl)cc2Cl)/C(=C/c2ccccc2)S3)s1 | Not Active |
| 7.02 | 3.2 | 7.52 | Cc1cc(NC(=O)CCl)sc1-c1nnc2sc(-c3ccccc3)nn12 | Not Active |
| – | – | 5.13 | Cc1cc(NC(=O)CCl)sc1-c1nnc2sc(=S)[nH]n12 | Not Active |
| 7.19 | 1 | 7.22 | CC(=O)Nc1cc(-c2ccccc2)c(-c2nnc3sc(-c4cccc([N+](=O)[O-])c4)nn23)s1 | Not Active |
| – | – | 5.61 | CC(=O)Nc1cc(-c2ccccc2)c(-c2nnc3n2N=C(c2cc(F)c(Cl)cc2Cl)/C(=C/c2ccc(Cl)cc2)S3)s1 | Not Active |
| 7.25 | 1 | 7.27 | CC(=O)Nc1cc(-c2ccccc2)c(-c2nnc(S)n2N)s1 | Not Active |
| 7.19 | 1.2 | 7.27 | CC(=O)Nc1cc(-c2ccccc2)c(-c2nnc3n2Nc2nc4ccccc4nc2S3)s1 | Not Active |
| 7.19 | 1 | 7.28 | Cc1cc(NC(=O)CCl)sc1-c1nnc2sc(-c3cccc([N+](=O)[O-])c3)nn12 | Not Active |
| – | – | 5.57 | O=C(CCl)Nc1cc(-c2ccccc2)c(-c2nnc3n2N=C(c2cc(F)c(Cl)cc2Cl)/C(=C/c2cccc([N+](=O)[O-])c2)S3)s1 | Not Active |
| 7.04 | 3.2 | 7.55 | O=C(CCl)Nc1cc(-c2ccccc2)c(-c2nnc3sc(-c4ccccc4)nn23)s1 | Not Active |
| 7.31 | – | 7.34 | Cc1cc(NC(=O)CCl)sc1-c1nnc(S)n1N | Not Active |

| pIC50 [1] | Ratio IC50 (Homo sapiens) | pIC50 [2] | SMILES | Activity [3] |
| --- | --- | --- | --- | --- |
| – | – | 6.38 | CC(=O)Nc1cc(-c2ccccc2)c(-c2nnc3n2NC(=O)CS3)s1 | Not Active |
| 6.85 | 2.2 | 7.19 | Cc1cc(NC(=O)CCl)sc1-c1nnc2n1Nc1nc3ccccc3nc1S2 | Not Active |
| – | – | 5.60 | O=C(CCl)Nc1cc(-c2ccccc2)c(-c2nnc3n2N=C(c2cc(F)c(Cl)cc2Cl)/C(=C/c2ccccc2)S3)s1 | Not Active |
| – | – | 6.35 | CC(=O)Nc1cc(-c2ccccc2)c(-c2nnc3n2N=C(C)CS3)s1 | Not Active |
| – | – | 5.53 | Cc1cc(NC(=O)CCl)sc1-c1nnc2n1N=C(c1cc(F)c(Cl)cc1Cl)/C(=C/c1ccc(Cl)cc1)S2 | Not Active |
| 7.09 | 2 | 7.40 | CC(=O)Nc1cc(-c2ccccc2)c(-c2nnc3n2NC(c2ccccc2)=C(c2ccccc2)S3)s1 | Not Active |
| 7.28 | 1 | 7.32 | O=C(CCl)Nc1cc(-c2ccccc2)c(-c2nnc3sc(-c4cccc([N+](=O)[O-])c4)nn23)s1 | Not Active |
| – | – | 5.61 | CC(=O)Nc1cc(-c2ccccc2)c(-c2nnc3n2N=C(c2cc(F)c(Cl)cc2Cl)/C(=C/c2ccccc2Cl)S3)s1 | Not Active |
| – | – | 5.47 | Cc1cc(NC(=O)CCl)sc1-c1nnc2n1N=C(c1cc(F)c(Cl)cc1Cl)/C(=C/c1ccccc1)S2 | Not Active |
| 7.29 | 1.2 | 7.38 | CC(=O)Nc1cc(C)c(-c2nnc3sc(-c4ccccc4)nn23)s1 | Not Active |
| – | – | 6.43 | CC1=Nn2c(nnc2-c2sc(NC(=O)CCl)cc2-c2ccccc2)SC1 | Not Active |
| – | – | 6.20 | O=C(CCl)Nc1cc(-c2ccccc2)c(-c2nnc3n2NC(=O)CS3)s1 | Not Active |
| – | – | 5.48 | Cc1cc(NC(=O)CCl)sc1-c1nnc2n1N=C(c1cc(F)c(Cl)cc1Cl)/C(=C/c1ccccc1Cl)S2 | Not Active |
| 6.99 | 3.2 | 7.52 | O=C(CCl)Nc1cc(-c2ccccc2)c(-c2nnc3n2Nc2nc4ccccc4nc2S3)s1 | Not Active |
| – | – | 5.69 | CC(=O)Nc1cc(-c2ccccc2)c(-c2nnc3sc(=S)[nH]n23)s1 | Not Active |
| 6.81 | 2 | 7.14 | Cc1cc(NC(=O)CCl)sc1-c1nnc2n1NC(c1ccccc1)=C(c1ccccc1)S2 | Not Active |
| 7.28 | 1 | 7.24 | CC(=O)Nc1cc(C)c(-c2nnc(S)n2N)s1 | Not Active |
| – | – | 6.34 | CC1=Nn2c(nnc2-c2sc(NC(=O)CCl)cc2C)SC1 | Not Active |
| 6.92 | 3 | 7.38 | Nn1c(S)nnc1-c1sc(NC(=O)CCl)cc1-c1ccccc1 | Not Active |
| – | – | 5.49 | CC(=O)Nc1cc(C)c(-c2nnc3sc(=S)[nH]n23)s1 | Not Active |
| – | – | 6.20 | CC(=O)Nc1cc(C)c(-c2nnc3n2NC(=O)CS3)s1 | Not Active |
| – | – | 5.61 | O=C(CCl)Nc1cc(-c2ccccc2)c(-c2nnc3n2N=C(c2cc(F)c(Cl)cc2Cl)/C(=C/c2ccccc2Cl)S3)s1 | Not Active |
| – | – | 5.52 | CC(=O)Nc1cc(C)c(-c2nnc3n2N=C(c2cc(F)c(Cl)cc2Cl)/C(=C/c2cccc([N+](=O)[O-])c2)S3)s1 | Not Active |
| – | – | 6.09 | Cc1cc(NC(=O)CCl)sc1-c1nnc2n1NC(=O)CS2 | Not Active |

Source: ChEMBL document CHEMBL1149673, “A novel approach to cyclin-dependent kinase 5/p25 inhibitors: A potential treatment for Alzheimer's disease” (Bioorg Med Chem, 2007)
